The results in this text go back to patent US20180099961A1, “PROTEIN KINASE INHIBITORS” (Princeton Drug Discovery Inc, priority 2016, published 2018).

Read-outs that look alike come from different tables or passages of the source. Bounds are passed on as bounds.

For series [1], the system named is RAF1. In words: Off-chip Mobility Shift Assay. The format is biochemical.
Series [2] is described as follows: Metabolic stability in human liver microsomes. The format is in vitro ADME. Particulars: for microsomal CLint at 1 μM / half-life at 1 μM: human, liver microsomes, human liver microsomes 0.5 mg/mL, NADPH and UDPGA, 37° C.; for microsomal CLint at 1 μM: read-out: CLint (intrinsic clearance); for half-life at 1 μM: read-out: In vitro t1/2; for metabolic stability as compared to dasatinib: human liver microsomes. Here is the method: FIG. 1. Metabolic stability of compounds in human liver microsomal incubations. […] Concentrations at specified times were determined by LC-MS/MS.
The incubation reactions at various time points were quenched by adding 2× volumes of acetonitrile containing 100 nM reserpine. The quenched incubation samples were centrifuged at 4000 RPM for 10 min, and the supernatants injected for LC/MS/MS analysis. LC/MS/MS analysis was carried out on a AB Sciex 4000 Q Trap LC/MS/MS system coupled with Shimadzu Prominence UFLCXR 20 series (including a CBM-20A controller, two LC-20ADXR solvent delivery units, SIL-20AC HT autosampler, CTO-20A column oven, and a SPD-20A UV detector).

Series [3] deals with T1, BTK (Homo sapiens, UniProt Q06187).
T1 construct: purchased Carna Biosciences
T1 sequence (Q06187 whole entry): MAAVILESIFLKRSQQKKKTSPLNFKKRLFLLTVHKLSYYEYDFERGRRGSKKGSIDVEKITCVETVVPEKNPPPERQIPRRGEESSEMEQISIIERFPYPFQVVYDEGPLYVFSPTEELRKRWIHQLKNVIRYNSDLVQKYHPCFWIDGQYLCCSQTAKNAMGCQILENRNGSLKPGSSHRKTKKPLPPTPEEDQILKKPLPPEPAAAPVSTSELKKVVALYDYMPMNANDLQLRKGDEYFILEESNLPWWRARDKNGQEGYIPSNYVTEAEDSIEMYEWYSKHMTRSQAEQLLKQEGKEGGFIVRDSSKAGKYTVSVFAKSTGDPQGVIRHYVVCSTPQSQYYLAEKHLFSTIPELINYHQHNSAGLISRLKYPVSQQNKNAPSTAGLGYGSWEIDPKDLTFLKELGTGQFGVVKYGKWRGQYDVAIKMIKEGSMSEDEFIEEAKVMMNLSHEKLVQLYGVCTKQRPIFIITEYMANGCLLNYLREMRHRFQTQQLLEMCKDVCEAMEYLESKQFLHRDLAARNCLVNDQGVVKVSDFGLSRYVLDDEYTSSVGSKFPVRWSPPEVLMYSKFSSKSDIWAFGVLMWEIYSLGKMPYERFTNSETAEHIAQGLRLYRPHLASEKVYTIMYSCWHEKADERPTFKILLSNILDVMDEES
Description: Off-chip Mobility Shift Assay. The format is biochemical. Particulars: read-out: IC50, recombinant BTK activity.

Series [4] is described as follows: Pharmacokinetics in Sprague-Dawley rats, 2-in-1 dosing. The format is in vivo. Particulars: for clearance / Vd / AUC(0-inf) / AUC(0-t) / half-life / bioavailability / Cmax / Tmax: Sprague-Dawley, rat; for clearance / Vd / AUC(0-inf) / AUC(0-t) / half-life / bioavailability: plasma; for clearance: read-out: CL (plasma clearance) (converted); for Vd: read-out: V (volume of distribution); for AUC(0-inf) / AUC(0-t) / half-life / Cmax / Tmax: single dose; for bioavailability: read-out: F (percent oral bioavailability); for intravenous plasma clearance compared to dasatinib and compound III / intravenous volume of distribution compared to dasatinib and compound III: Sprague-Dawley rats. Here is the method:
Sprague-Dawley rats (approximate weight 275-300 g, N=3) were dosed intravenously at 5 mL/kg and orally at 10 mL/kg with the above dosing solutions. Blood samples were collected into tubes containing EDTA as the anticoagulant at 0, 0.25 (intravenous only), 0.5, 1, 2, 4, 8, 10, and 24 h post-dosing, and plasma samples were prepared by centrifugation. The plasma samples were mixed with 3× volumes of acetonitrile containing 100 nM reserpine as the internal standard, and centrifuged at 4000 RPM for 15 min. The supernatants were injected for LC/MS analysis which were carried out on a AB Sciex 4000 Q Trap LC/MS/MS system coupled with Shimadzu Prominence UFLCXR 20 series (including a CBM-20A controller, two LC-20ADXR solvent delivery units, SIL-20AC HT autosampler, CTO-20A column oven, and a SPD-20A UV detector). The samples were separated on a Phenomenex Columbus column (C18, 4 μm, 50×2 mm) eluted with two solvent systems: 2 mM ammonium acetate in water containing 0.1% formic acid (A) and methanol (B) at a linear gradient starting with 25% B. Electrospray ionization in positive mode was used to acquire LC/MS/MS data.

The mark [5] stands for this setting: iv, 1 mg/kg, intravenous 1 mg/kg, single dose (Table 2).
Setting [6] is: iv, 1 mg/kg, intravenous 1 mg/kg, single dose (Table 3).
Where [7] appears, read: iv, 1 mg/kg, intravenous 1 mg/kg, plasma (Table 2).
The mark [8] stands for this setting: iv, 1 mg/kg, intravenous 1 mg/kg, plasma (Table 2), read-out: t1/2 (converted).
Where [9] appears, read: iv, 1 mg/kg, intravenous 1 mg/kg, plasma (Table 3).
The mark [10] stands for this setting: iv, 1 mg/kg, intravenous 1 mg/kg, plasma (Table 3), read-out: t½ (converted).
Where [11] appears, read: po, 2.5 mg/kg, PO 2.5 mg/kg, plasma (Table 2).
[12] abbreviates: po, 2.5 mg/kg, PO 2.5 mg/kg, plasma (Table 2), read-out: t1/2 (converted).
Where [13] appears, read: po, 5 mg/kg, PO 5 mg/kg, plasma (Table 3).
[14] abbreviates: po, 5 mg/kg, PO 5 mg/kg, plasma (Table 3), read-out: t½ (converted).
The mark [15] stands for this setting: PO 2.5 mg/kg versus intravenous 1 mg/kg, AUCinf dose normalized (Table 2).

As for `[2H]c1cc(C)c(NC(=O)c2cnc(Nc3cc(N4CCC(O)CC4)nc(C)n3)s2)c(Cl)c1` [Compound II, N-(2-chloro-4-deuterio-6-methyl-phenyl)-2-[[6-(4-hydroxy-1-piperidyl)-2-methyl-pyrimidin-4-yl]amino]thiazole-5-carboxamide], the “inhibition of RAF1” value in series [1] (1 nM), in series [1] (10 nM) and in series [1] (100 nM) was less than 50% each time. Besides, the microsomal CLint at 1 μM in series [2] is 44 µL/min/mg. Further, in series [2], the half-life at 1 μM came out at 0.533 h. The IC50 in series [3] was less than 1 nM.

`Cc1nc(Nc2ncc(C(=O)Nc3c(C)cccc3Cl)s2)cc(N2CCC(O)CC2)n1` [Compound IX, N-(2-chloro-6-methylphenyl)-2-[[2-methyl-6-(4-hydroxypiperidin-1-yl)pyrimidin-4-yl]amino]thiazole-5-carboxamide]: in series [2], the microsomal CLint at 1 μM was 56 µL/min/mg and the half-life at 1 μM is 0.417 h.

Take `Cc1nc(Nc2ncc(C(=O)Nc3c(C)cccc3Cl)s2)cc(N2CC[C@@H](N)C2)n1` [Compound XIII, N-(2-chloro-6-methylphenyl)-2-[[2-methyl-6-((R)-3-aminopyrrolidin-1-yl)pyrimidin-4-yl]amino]thiazole-5-carboxamide]: the “metabolic stability as compared to dasatinib” value in series [2] was “significantly greater stability”.

Take `Cc1nc(Nc2ncc(C(=O)Nc3c(C)cccc3Cl)s2)cc(N2CCN(CCO)CC2)n1` [Dasatinib, reference compound]: the figures for the clearance in series [4] (setting [5]) and in series [4] (setting [6]) were 21.3 mL/min/kg and 16.5 mL/min/kg, respectively. Further, the Vd is 3 L/kg in series [4] (setting [5]) and 2 L/kg in series [4] (setting [6]). Also, the AUC(0-inf) turned out to be 784 ± 54 ng·h/mL in series [4] (setting [7]), 1010 ± 68 ng·h/mL in series [4] (setting [9]), 196 ± 85 ng·h/mL in series [4] (setting [11]) and 97 ± 22 ng·h/mL in series [4] (setting [13]). Further, the AUC(0-t) came out at 783 ± 54 ng·h/mL in series [4] (setting [7]), 1010 ± 68 ng·h/mL in series [4] (setting [9]), 193 ± 86 ng·h/mL in series [4] (setting [11]) and 93 ± 23 ng·h/mL in series [4] (setting [13]). The half-life in series [4] (setting [8]) was 1.5 h; in series [4] (setting [10]), 1.7 ± 0.3 h; in series [4] (setting [12]), 3.5 ± 0.5 h; in series [4] (setting [14]), 5.9 ± 1.5 h. In series [4] (setting [15]), the bioavailability was found to be 9.8 ± 3.6%. Moreover, the Cmax in series [4] (PO 2.5 mg/kg, plasma (Table 2)) turned out to be 15 ± 5 ng/mL; in series [4] (PO 5 mg/kg, plasma (Table 3)), 7 ± 7 ng/mL. The Tmax is 5.5 ± 4.3 h in series [4] (PO 2.5 mg/kg, plasma (Table 2)) and 0.5 h in series [4] (PO 5 mg/kg, plasma (Table 3)).

Regarding `[2H]c1cc(C)c(NC(=O)c2cnc(Nc3cc(N4CCN(CCO)CC4)nc(C)n3)s2)c(Cl)c1` [Compound III], the clearance was 20.2 mL/min/kg in series [4] (setting [5]) and 18.6 mL/min/kg in series [4] (setting [6]). Further, the Vd in series [4] (setting [5]) and in series [4] (setting [6]) was 3 L/kg throughout. For the same molecule, the total exposure AUC(0-inf) in series [4] (setting [7]) turned out to be 835 ± 114 ng·h/mL; in series [4] (setting [9]), 917 ± 161 ng·h/mL; in series [4] (setting [11]), 144 ± 68 ng·h/mL; in series [4] (setting [13]), 137 ± 20 ng·h/mL. The area under the curve AUC(0-t) was 835 ± 114 ng·h/mL in series [4] (setting [7]), 916 ± 161 ng·h/mL in series [4] (setting [9]), 139 ± 69 ng·h/mL in series [4] (setting [11]) and 124 ± 26 ng·h/mL in series [4] (setting [13]). Moreover, the half-life in series [4] (setting [8]) is 1.6 ± 0.1 h; in series [4] (setting [10]), 1.7 ± 0.2 h; in series [4] (setting [12]), 4.7 ± 2.2 h; in series [4] (setting [14]) it was 8.2 ± 4.1 h. The bioavailability worked out at 7.2 ± 4.2% in series [4] (setting [15]) and 6 ± 0.9% in series [4] (PO 5 mg/kg versus intravenous 1 mg/kg, AUCinf dose normalized (Table 3)). The Cmax in series [4] (PO 2.5 mg/kg, plasma (Table 2)) was found to be 9 ± 6 ng/mL; in series [4] (PO 5 mg/kg, plasma (Table 3)), 11 ± 11 ng/mL. For the same molecule, the time to peak (Tmax) in series [4] (PO 2.5 mg/kg, plasma (Table 2)) worked out at 5.5 ± 4.3 h; in series [4] (PO 5 mg/kg, plasma (Table 3)), 0.5 h. Further, the half-life at 1 μM in series [2] came to 0.4 h.

`Cc1nc(Nc2ncc(C(=O)Nc3c(C)cccc3Cl)s2)cc(N2CC[C@H](N)C2)n1` [Compound XII, N-(2-chloro-6-methylphenyl)-2-[[2-methyl-6-((S)-3-aminopyrrolidin-1-yl)pyrimidin-4-yl]amino]thiazole-5-carboxamide]: the “metabolic stability as compared to dasatinib” value in series [2] was “significantly greater stability”.

As to `[2H]c1cc(C)c(NC(=O)c2cnc(Nc3cc(N4CC[C@H](O)C4)nc(C)n3)s2)c(Cl)c1` [Compound IV, N-(2-chloro-4-deutero-6-methylphenyl)-2-[[2-methyl-6-((S)-3-hydroxypyrrolidin-1-yl)pyrimidin-4-yl]amino]thiazole-5-carboxamide], in series [4], the “intravenous plasma clearance compared to dasatinib and compound III” value is given as “much lower”; the “intravenous volume of distribution compared to dasatinib and compound III” value was “significantly lower”. Besides, in series [4] (setting [5]), the clearance was 8.92 mL/min/kg and the Vd amounted to 1 L/kg. In series [4] (setting [7]), the AUC(0-inf) came out at 1880 ± 153 ng·h/mL and the AUC(0-t) came out at 1880 ± 152 ng·h/mL. Further, the half-life in series [4] (setting [8]) is 1.4 ± 0.1 h. Further, in series [4] (setting [11]), the AUC(0-inf) amounted to 892 ± 341 ng·h/mL and the AUC(0-t) came to 891 ± 341 ng·h/mL. For the same molecule, the half-life in series [4] (setting [12]) is 2.3 ± 0.2 h. The bioavailability in series [4] (setting [15]) is 18.9 ± 6.7%. Besides, in series [4] (PO 2.5 mg/kg, plasma (Table 2)), the Cmax is 82 ± 13 ng/mL and the Tmax amounted to 5.5 ± 4.3 h. Besides, in series [2], the “metabolic stability as compared to dasatinib” value is reported as “significantly greater stability”, the microsomal CLint at 1 μM was less than 24 µL/min/mg and the half-life at 1 μM is more than 0.983 h.

For `Cc1nc(Nc2ncc(C(=O)Nc3c(C)cccc3Cl)s2)cc(N2CCCCC2)n1` [Compound VIII, N-(2-chloro-6-methylphenyl)-2-[[2-methyl-6-(piperidin-1-yl)pyrimidin-4-yl]amino]thiazole-5-carboxamide], in series [2], the “metabolic stability as compared to dasatinib” value was “significantly greater stability”.

For `[2H]c1cc(C)c(NC(=O)c2cnc(Nc3cc(N4CC[C@@H](N)C4)nc(C)n3)s2)c(Cl)c1` [Compound VII, N-(2-chloro-4-deutero-6-methylphenyl)-2-[[2-methyl-6-((R)-3-aminopyrrolidin-1-yl)pyrimidin-4-yl]amino]thiazole-5-carboxamide], the “metabolic stability as compared to dasatinib” value in series [2] is listed as “significantly greater stability”.

Consider `[2H]c1cc(C)c(NC(=O)c2cnc(Nc3cc(N4CC[C@H](N)C4)nc(C)n3)s2)c(Cl)c1` [Compound VI, N-(2-chloro-4-dutero-6-methylphenyl)-2-[[2-methyl-6-((S)-3-aminopyrrolidin-1-yl)pyrimidin-4-yl]amino]thiazole-5-carboxamide], for which the “metabolic stability as compared to dasatinib” value in series [2] is “significantly greater stability”.

With `[2H]c1cc(C)c(NC(=O)c2cnc(Nc3cc(N4CC[C@@H](O)C4)nc(C)n3)s2)c(Cl)c1` [Compound V, N-(2-chloro-4-deutero-6-methylphenyl)-2-[[2-methyl-6-((R)-3-hydroxypyrrolidin-1-yl)pyrimidin-4-yl]amino]thiazole-5-carboxamide], in series [4], the “intravenous plasma clearance compared to dasatinib and compound III” value is reported as “much lower”; the “intravenous volume of distribution compared to dasatinib and compound III” value is “significantly lower”. Moreover, in series [4] (setting [5]), the clearance was 8.57 mL/min/kg and the Vd was found to be 1 L/kg. In series [4] (setting [7]), this molecule yielded an AUC(0-inf) of 1960 ± 214 ng·h/mL and an AUC(0-t) of 1960 ± 214 ng·h/mL. Besides, the half-life in series [4] (setting [8]) is 1.4 ± 0.1 h. In addition, in series [4] (setting [11]), the AUC(0-inf) was 539 ± 188 ng·h/mL and the exposure AUC(0-t) stood at 524 ± 191 ng·h/mL. Besides, in series [4] (setting [12]), the half-life was 4.4 ± 2.8 h. Moreover, the bioavailability in series [4] (setting [15]) came out at 11.1 ± 4.3%. Besides, in series [4] (PO 2.5 mg/kg, plasma (Table 2)), the Cmax amounted to 35 ± 19 ng/mL and the Tmax was 5.5 ± 4.3 h. Also, in series [2], the “metabolic stability as compared to dasatinib” value is recorded as “significantly greater stability”, the microsomal CLint at 1 μM is less than 24 µL/min/mg and the half-life at 1 μM is more than 0.983 h.
